According to publication PMC11760385, “Differential GTP-dependent in-vitro polymerization of recombinant Physcomitrella FtsZ proteins” (Scientific Reports, 2025):

Key:
FtsZ2-1 = target: T1, FtsZ2-1 (Physcomitrium patens, UniProt O49922); assay: malachite green phosphate release GTPase assay; type: biochemical; conditions: 1 mM GTP, 7.5 µM protein, 37.5 mM glycine pH 10, 100 mM KCl, 5 mM MgCl2, 5% glycerol, 25 °C, 10 min
T1 construct: gene ftsZ 2-1; lacks N-terminal transit peptide (42 aa, TargetP-2.0); N-terminal His6-SUMO tag cleaved with Ulp1; codon-optimised, expressed in E. coli NiCo; start 43 follows from the removed 42 aa

FtsZ1-2 = target: T2, FtsZ1-2 (Physcomitrium patens, UniProt A9SRP3); assay: malachite green phosphate release GTPase assay; type: biochemical; conditions: 1 mM GTP, 7.5 µM protein, 37.5 mM glycine pH 10, 100 mM KCl, 5 mM MgCl2, 5% glycerol, 25 °C, 10 min
T2 construct: gene LOC112295762; lacks N-terminal transit peptide (86 aa, TargetP-2.0); N-terminal His6-SUMO tag cleaved with Ulp1; codon-optimised, expressed in E. coli NiCo; start 87 follows from the removed 86 aa
T2 sequence (A9SRP3 entry or part of it): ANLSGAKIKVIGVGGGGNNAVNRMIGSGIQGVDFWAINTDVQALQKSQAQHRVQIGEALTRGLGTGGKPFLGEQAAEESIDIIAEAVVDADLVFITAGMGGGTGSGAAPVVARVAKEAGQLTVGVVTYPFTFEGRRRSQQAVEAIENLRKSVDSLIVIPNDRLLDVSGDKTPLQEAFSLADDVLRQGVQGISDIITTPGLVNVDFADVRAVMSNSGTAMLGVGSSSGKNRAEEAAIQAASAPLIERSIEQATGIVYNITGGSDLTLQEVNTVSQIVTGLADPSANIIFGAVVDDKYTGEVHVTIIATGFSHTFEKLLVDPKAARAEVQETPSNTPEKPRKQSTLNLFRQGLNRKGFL

T1 sequence (O49922 entry or part of it): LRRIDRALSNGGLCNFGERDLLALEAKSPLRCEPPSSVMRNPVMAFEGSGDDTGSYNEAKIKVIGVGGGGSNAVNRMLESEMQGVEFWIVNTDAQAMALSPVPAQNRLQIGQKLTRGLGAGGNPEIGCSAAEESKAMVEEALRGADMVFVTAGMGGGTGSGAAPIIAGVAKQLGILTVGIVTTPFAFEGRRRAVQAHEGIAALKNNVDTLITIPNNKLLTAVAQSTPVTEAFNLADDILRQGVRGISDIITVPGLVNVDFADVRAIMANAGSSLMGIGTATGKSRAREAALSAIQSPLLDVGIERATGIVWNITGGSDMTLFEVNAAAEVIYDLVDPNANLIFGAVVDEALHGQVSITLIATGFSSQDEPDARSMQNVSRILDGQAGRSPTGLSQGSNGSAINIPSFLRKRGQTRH

Nc1nc2c(ncn2[C@@H]2O[C@H](COP(=O)(O)OP(=O)(O)OP(=O)(O)O)[C@@H](O)[C@H]2O)c(=O)[nH]1 [GTP]
malachite green phosphate release GTPase assay (FtsZ2-1): Both FtsZ proteins exhibited low but significant GTPase activities. | malachite green phosphate release GTPase assay (FtsZ1-2): Both FtsZ proteins exhibited low but significant GTPase activities.
